From patent US20160279263A1, “DRUG DELIVERY COMPOSITIONS AND METHODS TARGETING P-GLYCOPROTEIN” (CORNELL UNIVERSITY, priority 2012, published 2016)

Target: T1, P-gp (Homo sapiens, UniProt P08183)
T1 construct: expressed in transfected cells; host or cells: MDA-435/LCC6 MDR cells, with MDA-435/LCC6 WT as the P-gp-negative comparison
Assay: FACS accumulation/efflux in MDA-435/LCC6 MDR cells compared with WT cells
Format: cell-based
From the text: Before tests were initiated, P-gp expression in both MDR and WT cells was confirmed by Western blot, which confirmed the expression of P-gp in the MDR cells and the lack of expression in WT cells. The protein band in the MDR cells was visible around the molecular weight of P-gp, 170 kDa, which correlates to the reported molecular weight of the protein.
No differences in P-gp function were observed. […] Statistics represent the significance differences in WT/MDR accumulation ratio at a p-value of <0.01.

T1 sequence (P08183 whole entry): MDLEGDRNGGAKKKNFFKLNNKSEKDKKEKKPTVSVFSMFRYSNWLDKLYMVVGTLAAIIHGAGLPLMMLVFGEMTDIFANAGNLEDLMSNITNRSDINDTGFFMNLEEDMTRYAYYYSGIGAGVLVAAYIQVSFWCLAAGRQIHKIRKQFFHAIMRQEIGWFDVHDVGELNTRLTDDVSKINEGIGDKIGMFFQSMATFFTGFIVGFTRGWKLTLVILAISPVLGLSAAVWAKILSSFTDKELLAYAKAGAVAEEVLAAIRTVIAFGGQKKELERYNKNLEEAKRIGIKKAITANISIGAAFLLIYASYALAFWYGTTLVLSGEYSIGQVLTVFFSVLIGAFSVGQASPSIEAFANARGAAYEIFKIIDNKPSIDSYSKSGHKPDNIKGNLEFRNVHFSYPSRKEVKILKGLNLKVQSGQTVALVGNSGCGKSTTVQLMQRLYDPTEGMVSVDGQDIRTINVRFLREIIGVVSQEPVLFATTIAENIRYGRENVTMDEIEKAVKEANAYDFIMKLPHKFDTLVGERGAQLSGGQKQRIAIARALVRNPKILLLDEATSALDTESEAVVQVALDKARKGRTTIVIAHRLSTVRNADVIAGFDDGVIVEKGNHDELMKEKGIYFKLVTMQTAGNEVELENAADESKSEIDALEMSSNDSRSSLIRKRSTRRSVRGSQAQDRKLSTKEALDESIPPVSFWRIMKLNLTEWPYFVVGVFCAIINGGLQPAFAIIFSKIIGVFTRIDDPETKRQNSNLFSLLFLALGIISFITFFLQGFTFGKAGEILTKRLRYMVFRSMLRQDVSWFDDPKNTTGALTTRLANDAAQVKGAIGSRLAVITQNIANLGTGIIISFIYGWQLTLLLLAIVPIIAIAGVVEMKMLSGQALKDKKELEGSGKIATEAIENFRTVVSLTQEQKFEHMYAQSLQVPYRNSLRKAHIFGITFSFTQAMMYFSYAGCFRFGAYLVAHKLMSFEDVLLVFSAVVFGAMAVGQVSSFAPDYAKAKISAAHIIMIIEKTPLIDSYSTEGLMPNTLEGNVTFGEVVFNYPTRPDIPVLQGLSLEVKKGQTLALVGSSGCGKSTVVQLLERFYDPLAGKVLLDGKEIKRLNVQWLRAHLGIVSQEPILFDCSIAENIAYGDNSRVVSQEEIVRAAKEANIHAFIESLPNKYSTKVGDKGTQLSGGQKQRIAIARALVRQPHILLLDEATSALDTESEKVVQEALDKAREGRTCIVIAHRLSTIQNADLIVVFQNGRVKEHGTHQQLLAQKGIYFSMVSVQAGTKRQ

Rhodamine 123 [free Rho123]
accumulation in MDR cells at 4° C. (4° C. relative to 37° C.): increase | WT to MDR accumulation ratio with verapamil (5, 25, 50, 75 and 100 μM verapamil, mode fluorescence): increase in accumulation ratio with increasing verapamil concentration
